Data reported in patent publication US7691874B2, “Neuroprotective properties of dextrorotatory morphinans” (priority 2004, dated 2010).
Marks after values point to notes of the source that are not given here.

Tests used:
C57 BL/6 mice [1] = test: Locomotor activity and locomotor pattern following repeated administration of morphinans or PCP; assay type: in vivo
MPTP-treated mice [2] = test: Nigral tyrosine hydroxylase-like immunoreactivity in MPTP-treated mice; settings: 24 mg/kg i.p.
Description: (§2) Each morphinan was administered 30 min prior to every injection of MPTP for last three days (from day 4th to day 7th). Animals were sacrificed 24 h after the last MPTP treatment.

C57 BL/6 mice [3] = test: Conditioned place preference (psychological dependence) following repeated administration of morphinans or PCP; assay type: in vivo; settings: 20 or 40 mg/kg i.p. (PCP 2.5 or 5 mg/kg); vs saline
Description: On day 14, the guillotine doors were raised. […] Data were analyzed between 0900 and 1700 hr.

MA-treated mice [4] = test: MA-induced behavioural sensitization; settings: morphinan 20 mg/kg i.p., last 3 days of wash-out (Ex. 3.12)
Description: Morphinans (20 mg/kg, i.p.) were administered last 3 days of wash-out period.

σ1 receptors = σ1 receptors (Homo sapiens, UniProt Q99720); settings: cited from earlier work
Sequence of σ1 receptors (Q99720 whole entry): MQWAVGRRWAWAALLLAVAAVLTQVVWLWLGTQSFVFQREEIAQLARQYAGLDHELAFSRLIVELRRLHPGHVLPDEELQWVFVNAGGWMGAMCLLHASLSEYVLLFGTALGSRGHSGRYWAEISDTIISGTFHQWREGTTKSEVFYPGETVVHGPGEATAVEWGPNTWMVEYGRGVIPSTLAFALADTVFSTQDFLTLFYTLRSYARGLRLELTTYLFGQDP

MA-treated mice [5] = test: Nigral TH-IR in MA-treated mice; settings: 24 mg/kg i.p.
MPTP-treated mice [6] = test: Striatal dopamine and metabolites (HPLC-EC) in MPTP-treated mice; settings: for Concentration DA in the striatum: mean ± S.E.M., 8 animals
Description: as §2
Brains were rapidly removed and cut into 1 mm coronal sections on ice. The striatum was punched using a fine pasteur pipette (3, 21, 22), and stored at −70° C. DA and its metabolites, 3,4-dihydroxyphenylacetic acid (DOPAC) and homovanilic acid (HVA) were measured by HPLC-eletrochemical detection (3, 21, 22). Briefly, the striatum was homogenized in 0.2 M perchloric acid containing 3,4-dihydroxybenzylamine as an internal standard (10 mg wet weight of tissue per ml). The homogenate was centrifuged and a 20-μl aliquot of the supernatant was injected into the HPLC equipped with an ODS-C18 column. The mobile phase was comprised of 26 ml of acetonitrile, 21 ml of tetrahydrofuran and 960 ml of 0.15 M monochloroacetic acid (pH 3.0) containing 50 mg/l of EDTA and 200 mg/l of sodium octyl sulfate. The amount of DA, DOPAC and HVA were determined by comparison of peak height ratio of tissue sample with standards, and were expressed in nanograms per 100 mg of wet weight of tissue.
Each morphinan was administered 30 min before every injection of MPTP for last three days. Animals were sacrificed at 24 h after the last MPTP injection.

MPTP-treated mice [7] = test: Hypokinesia (reduction in locomotor activity) induced by MPTP; assay type: in vivo; settings: 12 or 24 mg/kg i.p. 30 min before MPTP (20 mg/kg/day x 7), last three days
cocaine-treated mice [8] = test: Cocaine-induced Fos-related antigen-immunoreactivity (FRA-IR) in the striatum; settings: cocaine 5 mg/kg; morphinan 20 mg/kg i.p.
MA-treated mice [9] = test: Striatal dopamine and metabolites in MA-treated mice; assay type: in vivo; settings: for Concentration DA in the striatum: 3 days after final MA
Excerpt: Mice were sacrificed at 3 days after final MA injection.

MA-treated mice [10] = test: MA-induced hyperlocomotion; assay type: in vivo; settings: morphinan 20 mg/kg i.p. 30 min before MA 1 mg/kg i.p./day x 7
Description: FIGS. 39A-39D show effect of morphinans on the MA-induced hyperactivity in the mice. Each morphinan (20 mg/kg, i.p.) was administered 30 minutes prior to MA (1 mg/kg, i.p.). All treatments were performed for 7 days.

[11] = test system: kainate or maximal electric shock; settings: kainate (24) or maximal electric shock (27); cited from earlier work
MA-treated mice [12] = test: Methamphetamine (MA)-induced hyperthermia; assay type: in vivo; settings: 24 mg/kg; MA 7.5 mg/kg i.p. x 4 at 2-h intervals
Description: Rectal temperature was recorded at 40 min after each MA treatment. […] Mice were sacrificed at 3 days after final MA injection.
FIGS. 10A-10B show effect of morphinans on the methamphetamine (MA)-induced hyperthermia. Mice received i.p. injections of MA (four injections of 7.5 mg/kg each) at 2-h intervals under the ambient temperature of 22.0±0.5° C. Temperatures were recorded at 40 min after each MA treatment (Arrow=MA injection).

MA-treated mice [13] = test: Hypokinesia induced by MA; assay type: in vivo; settings: 12 and 24 mg/kg; 3 days after final MA
LPS-treated mice [14] = test: Striatal dopamine and metabolites in LPS-treated mice; assay type: in vivo; settings: for Concentration DA in the striatum: 3 weeks after LPS
Excerpt: (§1) Control animals received striatal injection with PBS.
Mice were sacrificed at 3 weeks after LPS treatment.

LPS-treated mice [15] = test: Hypokinesia induced by intrastriatal LPS; settings: 12 or 24 mg/kg, twice before bilateral intrastriatal LPS
MA-treated mice [16] = test: MA-induced FRA-IR in the striatum; settings: morphinan 20 mg/kg i.p.; MA 1 mg/kg i.p./day x 7
Description: Therefore, brains were removed and used for immunocytochemical analysis at 18 h after the final cocaine/MA treatment. The coronal sections containing striatum were processed for FRA immunocytochemistry. […] The FRA antibody was used at 1:2,000 as the optimal dilution. The FRA-IR in the striatum was calculated using image analysis systems with a polaroid digital microscopic camera (Optimas version 6.2).

LPS-treated mice [17] = test: Nigral TH-IR in LPS-treated mice; assay type: in vivo; settings: 24 mg/kg i.p.
Excerpt: FIGS. 8A-8B. […] Magnification=40×.
as §1

cocaine-treated mice [18] = test: Cocaine-induced hyperlocomotion; assay type: in vivo
Description: FIGS. 34A-34B show effect of morphinans on the cocaine-induced hyperactivity in the mice. Morphinans (15 and 30 mg/kg, i.p.) were administered 30 minutes prior to cocaine (5 and 20 mg/kg, i.p.). Central activity means relatively non-specific locomotor activity in the center of the box. Marginal activity means circling behaviors. All treatments were performed for 7 days.
FIGS. 35A-35D show effect of dimemorfan (DF) on cocaine-induced hyperactivity in the mice. DF (20 mg/kg, i.p.) was administered 30 minutes prior to cocaine (5 and 20 mg/kg, i.p.). All treatments were performed for 7 days.

COc1ccc2c(c1)[C@@]13CCCC[C@H]1[C@@H](C2)N(C)CC3 [DM, 3-methoxy-17-methylmorphinan, reference compound]
locomotor pattern (tracings) (C57 BL/6 mice [1]; 40 mg/kg i.p. (PCP 5 mg/kg), FIG. 3): produced marginal activity
marginal activity (circling behaviour; absolute turn angular) (C57 BL/6 mice [1]; 20 or 40 mg/kg i.p./day x 7 (PCP 2.5 or 5 mg/kg), 3-min period, vs saline): significant increase in marginal activity
locomotor activity (total distance moved) (C57 BL/6 mice [1]; 20 or 40 mg/kg i.p./day x 7 days, 30 min after final treatment, vs saline): significantly increased locomotor activity
effect on MPTP-induced decrease in nigral TH-positive cells (MPTP-treated mice [2]): significantly attenuated the decrease in TH-positive cells
conditioned place preference (CPP) (C57 BL/6 mice [3]): also produced CPP
effect on MA-induced behavioural sensitization (MA-treated mice [4]): did not alter behavioural sensitization by MA
affinity for σ1 receptors (σ1 receptors): high affinity ligands
effect on MA-induced decrease in nigral TH-positive cells (MA-treated mice [5]): significantly attenuated the decrease in TH-positive cells
effect on MPTP-induced reductions in striatal DA, DOPAC and HVA (MPTP-treated mice [6]; 24 mg/kg pretreatment): significantly protected
Concentration DOPAC in the striatum (MPTP-treated mice [6]; morphinan 12 (mg/kg) + MPTP): 69 ± 9 ng/100 mg wet tissue
Concentration HVA in the striatum (MPTP-treated mice [6]; morphinan 12 (mg/kg) + MPTP): 82 ± 9 ng/100 mg wet tissue
Concentration DA in the striatum (MPTP-treated mice [6]; morphinan 12 (mg/kg) + MPTP): 520 ± 67 ng/100 mg wet tissue
Concentration DOPAC in the striatum (MPTP-treated mice [6]; morphinan 24 (mg/kg) + MPTP): 85 ± 10^b ng/100 mg wet tissue
Concentration HVA in the striatum (MPTP-treated mice [6]; morphinan 24 (mg/kg) + MPTP): 98 ± 11^b ng/100 mg wet tissue
Concentration DA in the striatum (MPTP-treated mice [6]; morphinan 24 (mg/kg) + MPTP): 708 ± 82^b ng/100 mg wet tissue
effect on MPTP-induced reduction in locomotor activity (MPTP-treated mice [7]): significantly prevented MPTP-induced reduction in locomotor activity
effect on cocaine-induced FRA-IR in the striatum (cocaine-treated mice [8]): Neither DM nor MM affects this induction of FRA-IR
effect on MA-induced reductions in striatal DA, DOPAC and HVA (MA-treated mice [9]; 24 mg/kg pretreatment): significantly protected
Concentration DOPAC in the striatum (MA-treated mice [9]; morphinan 12 (mg/kg) + MA): 83 ± 9 ng/100 mg wet tissue
Concentration HVA in the striatum (MA-treated mice [9]; morphinan 12 (mg/kg) + MA): 82 ± 9 ng/100 mg wet tissue
Concentration DA in the striatum (MA-treated mice [9]; morphinan 12 (mg/kg) + MA, mean ± S.E.M., 8 animals): 625 ± 74 ng/100 mg wet tissue
Concentration DOPAC in the striatum (MA-treated mice [9]; morphinan 24 (mg/kg) + MA): 98 ± 11^b ng/100 mg wet tissue
Concentration HVA in the striatum (MA-treated mice [9]; morphinan 24 (mg/kg) + MA): 94 ± 8^b ng/100 mg wet tissue
Concentration DA in the striatum (MA-treated mice [9]; morphinan 24 (mg/kg) + MA): 782 ± 72^c ng/100 mg wet tissue
effect on MA-induced hyperlocomotion (MA-treated mice [10]): did not affect MA (1 mg/kg, i.p./day×7)-induced hyperactivity
anticonvulsant effect [11]: exhibited anticonvulsant effects
effect on MA-induced hyperthermia (rectal temperature) (MA-treated mice [12]): attenuated by all morphinans used in this study
effect on MA-induced reduction in locomotor activity (MA-treated mice [13]): significantly prevented MA-induced reduction in locomotor activity
effect on LPS-induced reductions in striatal DA, DOPAC and HVA (LPS-treated mice [14]; 24 mg/kg pretreatment): significantly protected
Concentration DOPAC in the striatum (LPS-treated mice [14]; morphinan 12 (mg/kg) + LPS): 68 ± 7 ng/100 mg wet tissue
Concentration HVA in the striatum (LPS-treated mice [14]; morphinan 12 (mg/kg) + LPS): 82 ± 9 ng/100 mg wet tissue
Concentration DA in the striatum (LPS-treated mice [14]; morphinan 12 (mg/kg) + LPS, mean ± S.E.M., 8 animals): 612 ± 76 ng/100 mg wet tissue
Concentration DOPAC in the striatum (LPS-treated mice [14]; morphinan 24 (mg/kg) + LPS): 105 ± 12^b ng/100 mg wet tissue
Concentration HVA in the striatum (LPS-treated mice [14]; morphinan 24 (mg/kg) + LPS): 98 ± 8^b ng/100 mg wet tissue
Concentration DA in the striatum (LPS-treated mice [14]; morphinan 24 (mg/kg) + LPS): 892 ± 92^d ng/100 mg wet tissue
effect on LPS-induced decrease in locomotor activity (LPS-treated mice [15]): significantly prevented LPS-induced decrease in locomotor activity
effect on MA-induced FRA-IR in the striatum (MA-treated mice [16]): did not affect this induction of FRA-IR
effect on LPS-induced reduction in nigral TH-positive cells (LPS-treated mice [17]): significantly attenuated the reduction in TH-positive cells
effect on locomotor activity induced by low dose of cocaine (cocaine-treated mice [18]; cocaine 5 mg/kg i.p. x 7 days, morphinan 15 or 30 mg/kg (DF 20 mg/kg) i.p.): enhanced locomotor activity produced by a low dose of cocaine
effect on hyperactivity induced by high dose of cocaine (cocaine-treated mice [18]; cocaine 20 mg/kg i.p. x 7 days, morphinan 15 or 30 mg/kg i.p. 30 min before): attenuated
